{
  "source": "patent US20250197372A1",
  "about": "(priority 2020, published 2025)",
  "data": [
    {"molecular_target": "T1, recombinant alpha-glucosidase I (human full-length glucosidase I, Glu 1) (Homo sapiens, UniProt Q13724)", "T1 construct": "6-His (C); made in house; host or cells: HEK-293T cells transduced with BacMam virus (virus raised in Sf9)", "T1 sequence (Q13724 1-837)": "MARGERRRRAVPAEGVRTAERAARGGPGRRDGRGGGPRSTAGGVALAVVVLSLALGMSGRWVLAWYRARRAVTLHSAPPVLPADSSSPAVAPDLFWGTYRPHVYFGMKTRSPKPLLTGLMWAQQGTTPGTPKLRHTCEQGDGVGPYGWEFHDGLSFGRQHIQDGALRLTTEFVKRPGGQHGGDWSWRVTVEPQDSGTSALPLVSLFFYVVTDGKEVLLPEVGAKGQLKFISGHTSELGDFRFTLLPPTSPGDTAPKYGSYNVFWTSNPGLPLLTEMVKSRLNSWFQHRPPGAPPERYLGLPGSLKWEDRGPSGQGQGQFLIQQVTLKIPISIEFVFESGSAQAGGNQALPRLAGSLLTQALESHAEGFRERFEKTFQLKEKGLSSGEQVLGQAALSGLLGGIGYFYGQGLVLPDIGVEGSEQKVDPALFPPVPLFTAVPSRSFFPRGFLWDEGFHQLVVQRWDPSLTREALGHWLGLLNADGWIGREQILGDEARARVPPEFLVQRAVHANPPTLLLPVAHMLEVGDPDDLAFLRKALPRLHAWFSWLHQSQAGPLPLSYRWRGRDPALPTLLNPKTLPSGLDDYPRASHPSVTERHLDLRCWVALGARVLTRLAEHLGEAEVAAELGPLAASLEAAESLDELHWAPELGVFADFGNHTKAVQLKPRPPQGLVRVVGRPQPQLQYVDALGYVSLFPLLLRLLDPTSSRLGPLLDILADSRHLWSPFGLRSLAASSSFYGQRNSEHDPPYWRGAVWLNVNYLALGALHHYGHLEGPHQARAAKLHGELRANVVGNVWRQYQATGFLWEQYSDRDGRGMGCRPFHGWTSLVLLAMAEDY", "assay": "Alpha-glucosidase I assay (Amplex Red glucose detection, synthetic trisaccharide substrate)", "type": "biochemical", "conditions": "Glucosidase 1; read-out: Glu 1 IC50", "outline": "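Human full-length glucosidase I, His-tagged, […] and Ni-purified. Enzyme preincubated with compound dilutions 60 min at 37° C, then synthetic trisaccharide substrate 90 min at 37° C; stopped with 1.5M Tris pH 8.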", "units": {"IC50": "µM"}, "values": [
      {"smiles": "Cc1cc(NCc2ccc(CN3C[C@H](O)[C@@H](O)[C@H](O)[C@H]3CO)cc2)cc(-c2ncccn2)c1", "note": "[Compound 1053, (2R,3R,4R,5S)-2-(hydroxymethyl)-1-{[4-({[3-methyl-5-(pyrimidin-2-yl)phenyl]amino}methyl)phenyl]methyl}piperidine-3,4,5-triol]", "IC50": 0.104},
      {"smiles": "O=[N+]([O-])c1cc(-c2ncccn2)ccc1NCc1ccc(CN2C[C@H](O)[C@@H](O)[C@H](O)[C@H]2CO)cc1", "note": "[Compound 1102, (2R,3R,4R,5S)-2-(hydroxymethyl)-1-{[4-({[2-nitro-4-(pyrimidin-2-yl)phenyl]amino}methyl)phenyl]methyl}piperidine-3,4,5-triol]", "IC50": "< 0.001"},
      {"smiles": "OC[C@@H]1[C@@H](O)[C@H](O)[C@@H](O)CN1Cc1ccc(CNc2ccc(-c3ccc[nH]3)cc2)cc1", "note": "[Compound 1094, (2R,3R,4R,5S)-2-(hydroxymethyl)-1-{[4-({[4-(1H-pyrrol-2-yl)phenyl]amino}methyl)phenyl]methyl}piperidine-3,4,5-triol]", "IC50": 0.028},
      {"smiles": "OC[C@@H]1[C@@H](O)[C@H](O)[C@@H](O)CN1CCc1cn(CCNc2ccccc2)c2ccccc12", "note": "[Compound 1076, (2R,3R,4R,5S)-2-(hydroxymethyl)-1-(2-{1-[2-(phenylamino)ethyl]-1H-indol-3-yl}ethyl)piperidine-3,4,5-triol]", "IC50": 1.31},
      {"smiles": "COc1cc(Br)cc(NCCn2cc(CCN3C[C@H](O)[C@@H](O)[C@H](O)[C@H]3CO)c3ccccc32)c1", "note": "[Compound 1075, (2R,3R,4R,5S)-1-[2-(1-{2-[(3-bromo-5-methoxyphenyl)amino]ethyl}-1H-indol-3-yl)ethyl]-2-(hydroxymethyl)piperidine-3,4,5-triol]", "IC50": 1.92},
      {"smiles": "[N-]=[N+]=Nc1ccc(NCC[C@H]2CC[C@@H](CCN3C[C@H](O)[C@@H](O)[C@H](O)[C@H]3CO)CC2)c([N+](=O)[O-])c1", "note": "[Compound 1106, (2R,3R,4R,5S)-2-(hydroxymethyl)-1-{2-[(1s,4s)-4-{2-[(4-azido-2-nitrophenyl)amino]ethyl}cyclohexyl]ethyl}piperidine-3,4,5-triol]", "IC50": "< 0.001"},
      {"smiles": "O=[N+]([O-])c1cc(C2=COCCO2)ccc1NCc1cccc(CN2C[C@H](O)[C@@H](O)[C@H](O)[C@H]2CO)c1", "note": "[Compound 1087, (2R,3R,4R,5S)-1-{[3-({[4-(5,6-dihydro-1,4-dioxin-2-yl)-2-nitro-phenyl]amino}methyl)phenyl]methyl}-2-(hydroxymethyl)piperidine-3,4,5-triol]", "IC50": "< 0.001"},
      {"smiles": "O=[N+]([O-])c1cc(-c2ccc[nH]2)ccc1NCc1ccc(CN2C[C@H](O)[C@@H](O)[C@H](O)[C@H]2CO)cc1", "note": "[Compound 1100, (2R,3R,4R,5S)-2-(hydroxymethyl)-1-{[4-({[2-nitro-4-(1H-pyrrol-2-yl)phenyl]amino}methyl)phenyl]methyl}piperidine-3,4,5-triol]", "IC50": "< 0.001"},
      {"smiles": "N#Cc1cc(NCc2cccc(CN3C[C@H](O)[C@@H](O)[C@H](O)[C@H]3CO)c2)cc(-c2ncccn2)c1", "note": "[Compound 1047, 3-(pyrimidin-2-yl)-5-{[(3-{[(2R,3R,4R,5S)-3,4,5-trihydroxy-2-(hydroxymethyl)piperidin-1-yl]methyl}phenyl)methyl]amino}benzonitrile]", "IC50": 0.013},
      {"smiles": "O=[N+]([O-])c1cc(-c2cccnn2)ccc1NCc1ccc(CN2C[C@H](O)[C@@H](O)[C@H](O)[C@H]2CO)cc1", "note": "[Compound 1101, (2R,3R,4R,5S)-2-(hydroxymethyl)-1-{[4-({[2-nitro-4-(pyridazin-3-yl)phenyl]amino}methyl)phenyl]methyl}piperidine-3,4,5-triol]", "IC50": "< 0.001"},
      {"smiles": "COc1cc(NCCc2ccc(CCN3C[C@H](O)[C@@H](O)[C@H](O)[C@H]3CO)cc2)cc(-c2noc(C3CCC3)n2)c1", "note": "[Compound 1120, (2R,3R,4R,5S)-1-{2-[4-(2-{[3-(5-cyclobutyl-1,2,4-oxadiazol-3-yl)-5-methoxyphenyl]amino}ethyl)phenyl]ethyl}-2-(hydroxymethyl)piperidine-3,4,5-triol]", "IC50": 1.13},
      {"smiles": "O=S(=O)(Nc1cc(NCCCCCCN2C[C@H](O)[C@@H](O)[C@H](O)[C@H]2CO)cc(-c2ncccn2)c1)C1CC1", "note": "[Compound 1114, N-[3-(pyrimidin-2-yl)-5-({6-[(2R,3R,4R,5S)-3,4,5-trihydroxy-2-(hydroxymethyl)piperidin-1-yl]hexyl}amino)phenyl]cyclopropanesulfonamide]", "IC50": 0.108},
      {"smiles": "O=[N+]([O-])c1cc(-c2ncccn2)ccc1NCCc1ccc(CCN2C[C@H](O)[C@@H](O)[C@H](O)[C@H]2CO)cc1", "note": "[Compound 1111, (2R,3R,4R,5S)-2-(hydroxymethyl)-1-{2-[4-(2-{[2-nitro-4-(pyrimidin-2-yl)phenyl]amino}ethyl)phenyl]ethyl}piperidine-3,4,5-triol]", "IC50": 0.068},
      {"smiles": "[N-]=[N+]=Nc1ccc(NCC[C@H]2CC[C@H](CCN3C[C@H](O)[C@@H](O)[C@H](O)[C@H]3CO)CC2)c([N+](=O)[O-])c1", "note": "[Compound 1107, (2R,3R,4R,5S)-2-(hydroxymethyl)-1-{2-[(1r,4r)-4-{2-[(4-azido-2-nitrophenyl)amino]ethyl}cyclohexyl]ethyl}piperidine-3,4,5-triol]", "IC50": 0.107},
      {"smiles": "O=[N+]([O-])c1cc(-c2cccnn2)ccc1NCc1cccc(CN2C[C@H](O)[C@@H](O)[C@H](O)[C@H]2CO)c1", "note": "[Compound 1089, (2R,3R,4R,5S)-2-(hydroxymethyl)-1-{[3-({[2-nitro-4-(pyridazin-3-yl)phenyl]amino}methyl)phenyl]methyl}piperidine-3,4,5-triol]", "IC50": 0.026},
      {"smiles": "O=[N+]([O-])c1cc(-c2ccncc2)ccc1NCCc1ccc(CCN2C[C@H](O)[C@@H](O)[C@H](O)[C@H]2CO)cc1", "note": "[Compound 1110, (2R,3R,4R,5S)-2-(hydroxymethyl)-1-{2-[4-(2-{[2-nitro-4-(pyridin-4-yl)phenyl]amino}ethyl)phenyl]ethyl}piperidine-3,4,5-triol]", "IC50": "< 0.001"},
      {"smiles": "O=[N+]([O-])c1cc(-c2cccnn2)ccc1NCCc1ccc(CCN2C[C@H](O)[C@@H](O)[C@H](O)[C@H]2CO)cc1", "note": "[Compound 1109, (2R,3R,4R,5S)-2-(hydroxymethyl)-1-{2-[4-(2-{[2-nitro-4-(pyridazin-3-yl)phenyl]amino}ethyl)phenyl]ethyl}piperidine-3,4,5-triol]", "IC50": 0.006},
      {"smiles": "CS(=O)(=O)c1cc(NCc2ccc(CN3C[C@H](O)[C@@H](O)[C@H](O)[C@H]3CO)cc2)cc(-c2ncccn2)c1", "note": "[Compound 1059, (2R,3R,4R,5S)-2-(hydroxymethyl)-1-{[4-({[3-methanesulfonyl-5-(pyrimidin-2-yl)phenyl]amino}methyl)phenyl]methyl}piperidine-3,4,5-triol]", "IC50": 0.033},
      {"smiles": "Cc1cc(CN2CCOCC2)cc(NCc2ccc(CN3C[C@H](O)[C@@H](O)[C@H](O)[C@H]3CO)cc2)c1", "note": "[Compound 1005, (2R,3R,4R,5S)-2-(hydroxymethyl)-1-({4-[({3-methyl-5-[(morpholin-4-yl)methyl]phenyl}amino)methyl]phenyl}methyl)piperidine-3,4,5-triol]", "IC50": 0.404},
      {"smiles": "[N-]=[N+]=Nc1ccc(NCCc2cc(CCN3C[C@H](O)[C@@H](O)[C@H](O)[C@H]3CO)cc(C3CCCCC3)c2)c([N+](=O)[O-])c1", "note": "[Compound 1115, (2R,3R,4R,5S)-1-[2-(3-{2-[(4-azido-2-nitrophenyl)amino]ethyl}-5-cyclohexylphenyl)ethyl]-2-(hydroxymethyl)piperidine-3,4,5-triol]", "IC50": 0.1},
      {"smiles": "OC[C@@H]1[C@@H](O)[C@H](O)[C@@H](O)CN1Cc1cccc(CNc2ccc(-c3cccnn3)cc2)c1", "note": "[Compound 1083, (2R,3R,4R,5S)-2-(hydroxymethyl)-1-{[3-({[4-(pyridazin-3-yl)phenyl]amino}methyl)phenyl]methyl}piperidine-3,4,5-triol]", "IC50": 0.072},
      {"smiles": "N#Cc1cc(NCc2ccc(CN3C[C@H](O)[C@@H](O)[C@H](O)[C@H]3CO)cc2)cc(C2=COCCO2)c1", "note": "[Compound 1062, 3-(5,6-dihydro-1,4-dioxin-2-yl)-5-{[(4-{[(2R,3R,4R,5S)-3,4,5-trihydroxy-2-(hydroxymethyl)piperidin-1-yl]methyl}phenyl)-methyl]amino}benzonitrile]", "IC50": 0.001},
      {"smiles": "OC[C@@H]1[C@@H](O)[C@H](O)[C@@H](O)CN1Cc1ccc(CNc2ccc(-c3ncccn3)cc2)cc1", "note": "[Compound 1096, (2R,3R,4R,5S)-2-(hydroxymethyl)-1-{[4-({[4-(pyrimidin-2-yl)phenyl]amino}methyl)phenyl]methyl}piperidine-3,4,5-triol]", "IC50": 0.015},
      {"smiles": "[N-]=[N+]=Nc1ccc(NCCC23CC(CCN4C[C@H](O)[C@@H](O)[C@H](O)[C@H]4CO)(C2)C3)c([N+](=O)[O-])c1", "note": "[Compound 1103, (2R,3R,4R,5S)-1-[2-(3-{2-[(4-azido-2-nitrophenyl)amino]ethyl}bicyclo[1.1.1]pentan-1-yl)ethyl]-2-(hydroxymethyl)piperidine-3,4,5-triol]", "IC50": 0.267}
    ]}
  ]
}
